Drawing on patent publication US12552846B2, “Modified BCL9 mimetic peptides” (Sapience Therapeutics, Inc., priority 2019, dated 2026), this text covers EC50 for ten compounds.

Square brackets hold non-standard residues; d marks the D form. Peptide text beside a SMILES is read from it. d1Nal = N[C@H](Cc1cccc2ccccc12)C(=O)O

The experiment has as its system HL60 promyelocytic leukemia cells. Description: Cytotoxicity assay in HL60 cells (Annexin V FITC / PI flow cytometry). In kind it is cell-based. As to conditions: 48 hours, 0-80 μM, % Viability (Annexin V low, PI low). The protocol: We examined the cytotoxicity of peptides BCL-26 and BCL-27 using an assay in HL60 promyelocytic leukemia cells. HL60 PML suspension cells were set at a density of 3.5×10^3 cells/well in 150 μL of RPMI+1.5% fetal bovine serum (FBS) in a 96 well dish. BCL-26 or BCL-27, reconstituted at a concentration of 10 mg/mL in 20 mM His, pH 7.5, was added to each well at a volume of 50 μL to a final concentration range of 0-80 μM. Cells were incubated with peptide for 48 hours at 37° C. Cell viability was quantified by flow cytometry using abcam Annexin V FITC apoptosis detection kit. Briefly, cells were washed with PBS and resuspended in 1× assay buffer containing Annexin V FITC and propidium iodide (PI). Annexin V detects apoptotic cells, and PI stains dead cells. After staining, apoptotic cells show green fluorescence, dead cells show red and green fluorescence, and live cells show little or no fluorescence. Cells were selected for analysis based on forward scatter (FSC) vs. side scatter (SSC), and analyzed by BD Accuri C6 Plus flow cytometer to detect Annexin V-FITC binding (Ex=488 nm; Em=530 nm) using FITC signal detector and PI staining by the phycoerythrnn emission signal detector. Percentage of Annexin V^low and PI^low were quantified and presented as % Viability.
We examined the cytotoxicity of additional retro inverso and mixed chirality BCL9 mimetic peptides in HL60 cells using the assay described above.
(A flow cytometer gives signals particle by particle.)
On to `CC(C)C[C@@H](NC(=O)[C@@H](CCCNC(=N)N)NC(=O)[C@@H](C)NC(=O)[C@@H](CC(C)C)NC(=O)[C@@H](CCC(N)=O)NC(=O)[C@@H](CCCNC(=N)N)NC(=O)[C@H](NC(=O)[C@@H](CC(C)C)NC(=O)[C@@H](Cc1c[nH]c2ccccc12)NC(=O)[C@H](Cc1c[nH]c2ccccc12)NC(=O)[C@H](N)Cc1ccccc1)C(C)C)C(=O)N[C@H](C)C(=O)N[C@H](CCC(N)=O)C(=O)N[C@H](CC(C)C)C(=O)N[C@H](C)C(=O)N[C@H](CCCCN)C(=O)N[C@H](CC(C)C)C(=O)N[C@@H](C(=O)N1CCC[C@@H]1C(=O)N[C@@H](C(=O)O)C(C)C)[C@H](C)O` [BCL-131] (H-[dF]W[dW][dL][dV][dR][dQ][dL][dA][dR][dL][dA][dQ][dL][dA][dK][dL][dT][dP][dV]-OH; N-terminus and C-terminus assumed), for which the EC50 was less than 2000 nM.

Compound `CC(C)C[C@@H](NC(=O)[C@@H](Cc1c[nH]c2ccccc12)NC(=O)[C@H](N)Cc1c[nH]c2ccccc12)C(=O)N[C@H](C)C(=O)N[C@H](CCCNC(=N)N)C(=O)N[C@H](CCC(N)=O)C(=O)N[C@H](CC(C)C)C(=O)N[C@H](C)C(=O)N[C@H](CCCNC(=N)N)C(=O)N[C@H](CC(C)C)C(=O)N[C@H](C)C(=O)N[C@H](CCC(N)=O)C(=O)N[C@H](CC(C)C)C(=O)N[C@H](C)C(=O)N[C@H](CCCNC(=N)N)C(=O)N[C@H](CCC(=O)O)C(=O)N[C@H](CCCNC(=N)N)C(=O)N[C@H](Cc1c[nH]cn1)C(=O)N[C@H](CCC(=O)O)C(=O)N[C@H](CC(C)C)C(=O)N[C@H](CCC(N)=O)C(=O)N[C@H](CCC(=O)O)C(=O)N[C@H](CCC(N)=O)C(=O)N[C@H](CO)C(=O)N[C@H](CC(C)C)C(=O)N[C@H](CCCCN)C(=O)N[C@H](CC(C)C)C(=O)N[C@@H](C(=O)N1CCC[C@@H]1C(=O)N[C@@H](C(=O)O)C(C)C)[C@H](C)O` [BCL-84] (H-[dW][dW][dL][dA][dR][dQ][dL][dA][dR][dL][dA][dQ][dL][dA][dR][dE][dR][dH][dE][dL][dQ][dE][dQ][dS][dL][dK][dL][dT][dP][dV]-OH; N-terminus and C-terminus assumed) registered an EC50 of less than 2000 nM.

`CC(C)C[C@@H](NC(=O)[C@@H](CCCNC(=N)N)NC(=O)[C@@H](C)NC(=O)[C@@H](CC(C)C)NC(=O)[C@@H](CCC(N)=O)NC(=O)[C@@H](CCCNC(=N)N)NC(=O)[C@@H](CCC(=O)O)NC(=O)[C@@H](CC(C)C)NC(=O)[C@@H](Cc1c[nH]c2ccccc12)NC(=O)[C@H](N)Cc1c[nH]c2ccccc12)C(=O)N[C@H](C)C(=O)N[C@H](CCC(N)=O)C(=O)N[C@H](CC(C)C)C(=O)N[C@H](C)C(=O)N[C@H](CCCCN)C(=O)N[C@H](CC(C)C)C(=O)N[C@@H](C(=O)N1CCC[C@@H]1C(=O)N[C@@H](C(=O)O)C(C)C)[C@H](C)O` [BCL-83] (H-[dW][dW][dL][dE][dR][dQ][dL][dA][dR][dL][dA][dQ][dL][dA][dK][dL][dT][dP][dV]-OH; N-terminus and C-terminus assumed) returned a 50% effective concentration (EC50) of 2000 to 10000 nM.

For `CC(C)C[C@@H](NC(=O)[C@@H](Cc1c[nH]c2ccccc12)NC(=O)[C@H](N)Cc1cccc2ccccc12)C(=O)N[C@H](C)C(=O)N[C@H](CCCNC(=N)N)C(=O)N[C@H](CCC(N)=O)C(=O)N[C@H](CC(C)C)C(=O)N[C@H](C)C(=O)N[C@H](CCCNC(=N)N)C(=O)N[C@H](CC(C)C)C(=O)N[C@H](C)C(=O)N[C@H](CCC(N)=O)C(=O)N[C@H](CC(C)C)C(=O)N[C@H](C)C(=O)N[C@H](CCCCN)C(=O)N[C@H](CC(C)C)C(=O)N[C@@H](C(=O)N1CCC[C@@H]1C(=O)N[C@@H](C(=O)O)C(C)C)[C@H](C)O` [BCL-77] (H-[d1Nal][dW][dL][dA][dR][dQ][dL][dA][dR][dL][dA][dQ][dL][dA][dK][dL][dT][dP][dV]-OH; N-terminus and C-terminus assumed), the EC50 is less than 2000 nM.

In turn, `CC(C)C[C@@H](NC(=O)[C@@H](CCCNC(=N)N)NC(=O)[C@@H](C)NC(=O)[C@@H](CC(C)C)NC(=O)[C@@H](CCC(N)=O)NC(=O)[C@@H](CCCNC(=N)N)NC(=O)[C@H](NC(=O)[C@@H](CC(C)C)NC(=O)[C@@H](Cc1c[nH]c2ccccc12)NC(=O)[C@H](Cc1c[nH]c2ccccc12)NC(=O)CNC(=O)[C@@H](CCCNC(=N)N)NC(=O)CNC(=O)[C@@H](CC(=O)O)NC(=O)[C@@H](CO)NC(=O)[C@H]1CCCN1)C(C)C)C(=O)N[C@H](C)C(=O)N[C@H](CCC(N)=O)C(=O)N[C@H](CC(C)C)C(=O)N[C@H](C)C(=O)N[C@H](CCCCN)C(=O)N[C@H](CC(C)C)C(=O)N[C@@H](C(=O)N1CCC[C@@H]1C(=O)N[C@@H](C(=O)O)C(C)C)[C@H](C)O` [BCL-139] (H-[dP][dS][dD]G[dR]GW[dW][dL][dV][dR][dQ][dL][dA][dR][dL][dA][dQ][dL][dA][dK][dL][dT][dP][dV]-OH; N-terminus and C-terminus assumed) came in with a 50% effective concentration (EC50) of less than 2000 nM.

As for `CC(C)C[C@@H](NC(=O)[C@H](N)Cc1c[nH]c2ccccc12)C(=O)N[C@H](CC(C)C)C(=O)N[C@H](C)C(=O)N[C@H](CCCNC(=N)N)C(=O)N[C@H](CCC(N)=O)C(=O)N[C@H](CC(C)C)C(=O)N[C@H](C)C(=O)N[C@H](CCCNC(=N)N)C(=O)N[C@H](CC(C)C)C(=O)N[C@H](C)C(=O)N[C@H](CCC(N)=O)C(=O)N[C@H](CC(C)C)C(=O)N[C@H](C)C(=O)N[C@H](CCCCN)C(=O)N[C@H](CC(C)C)C(=O)N[C@@H](C(=O)N1CCC[C@@H]1C(=O)N[C@@H](C(=O)O)C(C)C)[C@H](C)O` [BCL-82] (H-[dW][dL][dL][dA][dR][dQ][dL][dA][dR][dL][dA][dQ][dL][dA][dK][dL][dT][dP][dV]-OH; N-terminus and C-terminus assumed), the concentration for a half-maximal effect (EC50) fell in the range of 2000 to 10000 nM.

`CC(C)C[C@@H](NC(=O)[C@@H](Cc1c[nH]c2ccccc12)NC(=O)[C@H](CCCNC(=N)N)NC(=O)[C@H](N)Cc1ccccc1)C(=O)N[C@H](C)C(=O)N[C@H](CCCNC(=N)N)C(=O)N[C@H](CCC(N)=O)C(=O)N[C@H](CC(C)C)C(=O)N[C@H](C)C(=O)N[C@H](CCCNC(=N)N)C(=O)N[C@H](CC(C)C)C(=O)N[C@H](C)C(=O)N[C@H](CCC(N)=O)C(=O)N[C@H](CC(C)C)C(=O)N[C@H](C)C(=O)N[C@H](CCCCN)C(=O)N[C@H](CC(C)C)C(=O)N[C@@H](C(=O)N1CCC[C@@H]1C(=O)N[C@@H](C(=O)O)C(C)C)[C@H](C)O` [BCL-129] (H-[dF]R[dW][dL][dA][dR][dQ][dL][dA][dR][dL][dA][dQ][dL][dA][dK][dL][dT][dP][dV]-OH; N-terminus and C-terminus assumed) returned a concentration for a half-maximal effect (EC50) of less than 2000 nM.

Consider `CC(C)C[C@@H](NC(=O)[C@@H](Cc1c[nH]c2ccccc12)NC(=O)[C@H](N)Cc1c[nH]c2ccccc12)C(=O)N[C@H](C)C(=O)N[C@H](CCCNC(=N)N)C(=O)N[C@H](CCC(N)=O)C(=O)N[C@H](CC(C)C)C(=O)N[C@H](C)C(=O)N[C@H](CCCNC(=N)N)C(=O)N[C@H](CC(C)C)C(=O)N[C@H](CCCCN)C(=O)N[C@H](CCC(N)=O)C(=O)N[C@H](CC(C)C)C(=O)N[C@H](C)C(=O)N[C@H](CCCCN)C(=O)N[C@H](CC(C)C)C(=O)N[C@@H](C(=O)N1CCC[C@@H]1C(=O)N[C@@H](C(=O)O)C(C)C)[C@H](C)O` [BCL-89] (H-[dW][dW][dL][dA][dR][dQ][dL][dA][dR][dL][dK][dQ][dL][dA][dK][dL][dT][dP][dV]-OH; N-terminus and C-terminus assumed), for which the concentration for a half-maximal effect (EC50) fell in the range of 2000 to 10000 nM.

For `CC(C)C[C@@H](NC(=O)[C@@H](Cc1c[nH]c2ccccc12)NC(=O)[C@@H](N)Cc1c[nH]c2ccccc12)C(=O)N[C@H](C)C(=O)N[C@H](CCCNC(=N)N)C(=O)N[C@H](CCC(N)=O)C(=O)N[C@H](CC(C)C)C(=O)N[C@H](CCC(=O)O)C(=O)N[C@H](CCCNC(=N)N)C(=O)N[C@H](CC(C)C)C(=O)N[C@H](C)C(=O)N[C@H](CCCNC(=N)N)C(=O)N[C@H](CC(C)C)C(=O)N[C@H](C)C(=O)N[C@H](CCCCN)C(=O)N[C@H](CC(C)C)C(=O)N[C@@H](C(=O)N1CCC[C@@H]1C(=O)N[C@@H](C(=O)O)C(C)C)[C@H](C)O` [BCL-98] (H-W[dW][dL][dA][dR][dQ][dL][dE][dR][dL][dA][dR][dL][dA][dK][dL][dT][dP][dV]-OH; N-terminus and C-terminus assumed), the half-maximal effective concentration (EC50) lay within 2000 to 10000 nM.

Regarding `CC(C)C[C@@H](NC(=O)[C@@H](Cc1c[nH]c2ccccc12)NC(=O)[C@H](N)Cc1c[nH]c2ccccc12)C(=O)N[C@H](C)C(=O)N[C@H](CCCNC(=N)N)C(=O)N[C@H](CCC(N)=O)C(=O)N[C@H](CC(C)C)C(=O)N[C@H](CCC(=O)O)C(=O)N[C@H](CCCNC(=N)N)C(=O)N[C@H](CC(C)C)C(=O)N[C@H](CCCNC(=N)N)C(=O)N[C@H](CCCNC(=N)N)C(=O)N[C@H](CC(C)C)C(=O)N[C@H](C)C(=O)N[C@H](CCCCN)C(=O)N[C@H](CC(C)C)C(=O)N[C@@H](C(=O)N1CCC[C@@H]1C(=O)N[C@@H](C(=O)O)C(C)C)[C@H](C)O` [BCL-88] (H-[dW][dW][dL][dA][dR][dQ][dL][dE][dR][dL][dR][dR][dL][dA][dK][dL][dT][dP][dV]-OH; N-terminus and C-terminus assumed), the concentration for a half-maximal effect (EC50) is less than 2000 nM.

Usually EC50 stands for the concentration at which the effect is half-maximal. A low value points to greater potency.
